Results: ChEMBL document CHEMBL1201862, “PubChem BioAssay data set” (2004)
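A five-concentration, 48-hour dose response in 96-well plates underlies each endpoint, interpolated linearly between surrounding concentrations. Abbreviation: GI50, concentration required for 50% inhibition of growth.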 Activity calls are given as the source filed them. No stated cut-off is given here; in the data, active = GI50 up to about 1.1 µM and inactive = higher.

How the values were obtained:
Experiment in all cases: inhibition of tumour cell growth, NCI panel, 48 h
RPMI-8226 = system: RPMI-8226
KM-20L2 = system: KM-20L2
SN12C = system: SN12C
LOX IMVI = system: LOX IMVI
SNB-78 = system: SNB-78
SK-OV-3 = system: SK-OV-3
SK-MEL-2 = system: SK-MEL-2
SW-620 = system: SW-620
SNB-75 = system: SNB-75
HCC 2998 = system: HCC 2998
XF498 = system: XF498
DMS-114 = system: DMS-114
IGROV-1 = system: IGROV-1
HL-60 = system: HL-60
NCI-H460 = system: NCI-H460
M19-MEL = system: M19-MEL
A498 = system: A498
MDA-MB-231 = system: MDA-MB-231
MCF7 = system: MCF7
PC-3 = system: PC-3

Row | Structure (SMILES) | GI50 (RPMI-8226) | GI50 (KM-20L2) | GI50 (SN12C) | GI50 (LOX IMVI) | GI50 (SNB-78) | GI50 (SK-OV-3) | GI50 (SK-MEL-2) | GI50 (SW-620) | GI50 (SNB-75) | GI50 (HCC 2998) | GI50 (XF498) | GI50 (DMS-114) | GI50 (IGROV-1) | GI50 (HL-60) | GI50 (NCI-H460) | GI50 (M19-MEL) | GI50 (A498) | GI50 (MDA-MB-231) | GI50 (MCF7) | GI50 (PC-3)
1 | Cn1cc(NC(=O)[C@H]2CCC(N)=N2)cc1C(=O)NCCC(=N)N | > 100 µM (inactive) | > 100 µM (inactive) | > 100 µM (inactive) | > 100 µM (inactive) | > 100 µM (inactive) | > 100 µM (inactive) | > 100 µM (inactive) | > 100 µM (inactive) | > 100 µM (inactive) | > 100 µM (inactive) | > 100 µM (inactive) | > 100 µM (inactive) | > 100 µM (inactive) | > 100 µM (inactive) | > 100 µM (inactive) | – | – | – | – | –
2 | Cc1cccc(C(C)C)c1NC(=O)/C(Cc1c([N+](=O)[O-])cccc1[N+](=O)[O-])=N/NC(=O)CC#N | – | > 100 µM (inactive) | – | > 100 µM (inactive) | – | > 100 µM (inactive) | > 100 µM (inactive) | > 100 µM (inactive) | > 100 µM (inactive) | > 100 µM (inactive) | – | > 100 µM (inactive) | > 100 µM (inactive) | > 100 µM (inactive) | > 100 µM (inactive) | > 100 µM (inactive) | 44.4 µM (inactive) | – | – | –
3 | CCO[C@]12C[C@H](OC)[C@@]3(O)CC(C1[C@H]3O)C13C4C2[C@H](OC)C1[C@](COC)(CN4CC)[C@H](O)C[C@@H]3OC (some centres not stated) | > 100 µM (inactive) | > 100 µM (inactive) | > 100 µM (inactive) | > 100 µM (inactive) | > 100 µM (inactive) | > 100 µM (inactive) | – | > 100 µM (inactive) | > 10 µM (inactive) | > 100 µM (inactive) | – | > 100 µM (inactive) | > 100 µM (inactive) | > 100 µM (inactive) | > 100 µM (inactive) | > 100 µM (inactive) | – | – | – | –
4 | C[C@H](O)C(=O)SC[C@H](NC(=O)CC[C@@H](N)C(=O)O)C(=O)NCC(=O)O | > 100 µM (inactive) | > 100 µM (inactive) | > 100 µM (inactive) | > 100 µM (inactive) | – | > 100 µM (inactive) | > 100 µM (inactive) | > 100 µM (inactive) | 14.5 µM (inactive) | > 100 µM (inactive) | – | > 100 µM (inactive) | > 100 µM (inactive) | > 10 µM (inactive) | > 100 µM (inactive) | > 100 µM (inactive) | – | – | – | –
5 | c1ccc2c(c1)CCCC/C2=N/OCC1CO1 (configuration not stated) | 30.3 µM (inactive) | > 100 µM (inactive) | 51.5 µM (inactive) | 32.9 µM (inactive) | 57.4 µM (inactive) | – | > 100 µM (inactive) | 63.4 µM (inactive) | 54.5 µM (inactive) | > 100 µM (inactive) | 29.4 µM (inactive) | 34.8 µM (inactive) | 50.8 µM (inactive) | 21.4 µM (inactive) | 80.7 µM (inactive) | – | > 100 µM (inactive) | – | – | –
6 | CCCCCCCSc1nc2c(C(=O)OCC)ncn2c2ccccc12 | > 100 µM (inactive) | > 100 µM (inactive) | > 100 µM (inactive) | > 100 µM (inactive) | – | > 100 µM (inactive) | > 100 µM (inactive) | > 100 µM (inactive) | – | > 100 µM (inactive) | > 100 µM (inactive) | > 100 µM (inactive) | > 100 µM (inactive) | > 100 µM (inactive) | > 100 µM (inactive) | > 100 µM (inactive) | – | – | – | –
7 | CN(C)CCC(O)(c1ccccc1)C(O)(CCN(C)C)c1ccccc1 (configuration not stated) | > 100 µM (inactive) | 67 µM (inactive) | > 100 µM (inactive) | – | > 100 µM (inactive) | > 100 µM (inactive) | > 100 µM (inactive) | > 100 µM (inactive) | 33.1 µM (inactive) | > 100 µM (inactive) | 38.7 µM (inactive) | > 100 µM (inactive) | > 100 µM (inactive) | – | > 100 µM (inactive) | > 100 µM (inactive) | > 100 µM (inactive) | – | – | –
8 | N#C/C(=C1/Sc2c(nc[nH]c2=O)N1c1ccccc1)c1nc2ccccc2[nH]1 | > 100 µM (inactive) | > 100 µM (inactive) | > 100 µM (inactive) | – | > 100 µM (inactive) | > 100 µM (inactive) | > 100 µM (inactive) | > 100 µM (inactive) | 26 µM (inactive) | > 100 µM (inactive) | > 100 µM (inactive) | > 100 µM (inactive) | > 100 µM (inactive) | > 100 µM (inactive) | > 100 µM (inactive) | > 100 µM (inactive) | > 100 µM (inactive) | – | – | –
9 | C=C1[C@@H]2CCC(C)(C)[C@H]1CCC(=O)[C@@H]2C(=O)OC | > 100 µM (inactive) | > 100 µM (inactive) | > 100 µM (inactive) | > 100 µM (inactive) | – | – | > 100 µM (inactive) | > 100 µM (inactive) | – | > 100 µM (inactive) | > 100 µM (inactive) | > 100 µM (inactive) | > 100 µM (inactive) | > 100 µM (inactive) | > 100 µM (inactive) | > 100 µM (inactive) | > 100 µM (inactive) | – | – | –
10 | O=C(O)C1=CNC(C(=O)O)=NN1 | > 100 µM (inactive) | > 100 µM (inactive) | > 100 µM (inactive) | – | – | > 100 µM (inactive) | > 100 µM (inactive) | > 100 µM (inactive) | > 100 µM (inactive) | – | > 100 µM (inactive) | > 100 µM (inactive) | > 100 µM (inactive) | > 100 µM (inactive) | > 100 µM (inactive) | > 100 µM (inactive) | – | – | – | –
11 | O=C1Cc2cn[nH]c2-c2ccccc2N1 | 17.1 µM (inactive) | – | > 44.4 µM (inactive) | 16.3 µM (inactive) | – | > 85.7 µM (inactive) | 26.9 µM (inactive) | 17.2 µM (inactive) | 79.3 µM (inactive) | 26.2 µM (inactive) | – | – | 39.2 µM (inactive) | 29.8 µM (inactive) | 24.2 µM (inactive) | – | > 94.4 µM (inactive) | > 45.5 µM (inactive) | 39 µM (inactive) | 41.2 µM (inactive)
12 | O=C(c1nc2ccc(Cl)cc2nc1O)C(O)c1ccccc1 (configuration not stated) | 3.85 µM (inactive) | 76 µM (inactive) | > 100 µM (inactive) | 34.8 µM (inactive) | > 100 µM (inactive) | > 100 µM (inactive) | > 100 µM (inactive) | > 100 µM (inactive) | – | > 100 µM (inactive) | – | 56.5 µM (inactive) | > 100 µM (inactive) | 9.86 µM (inactive) | > 100 µM (inactive) | > 100 µM (inactive) | 14.8 µM (inactive) | – | – | –
13 | C/C(=N\NS(=O)(=O)c1ccc(C)cc1)c1cc2ccccc2n1C | > 100 µM (inactive) | > 100 µM (inactive) | 24.2 µM (inactive) | > 100 µM (inactive) | – | – | > 100 µM (inactive) | > 100 µM (inactive) | 59.2 µM (inactive) | > 100 µM (inactive) | – | > 100 µM (inactive) | > 100 µM (inactive) | > 100 µM (inactive) | > 100 µM (inactive) | > 100 µM (inactive) | > 100 µM (inactive) | – | – | –
14 | CC(C)=CC1(C)/C(=N\O)C(C)(CC(C)C)C(=O)N1O (configuration not stated) | > 100 µM (inactive) | > 100 µM (inactive) | > 100 µM (inactive) | > 100 µM (inactive) | > 100 µM (inactive) | > 100 µM (inactive) | > 100 µM (inactive) | > 100 µM (inactive) | > 100 µM (inactive) | > 100 µM (inactive) | 11.3 µM (inactive) | > 100 µM (inactive) | > 100 µM (inactive) | > 100 µM (inactive) | > 100 µM (inactive) | > 100 µM (inactive) | > 100 µM (inactive) | – | – | –
15 | COC(=O)/C=C\C(C#N)(C#N)/N=C/c1cccs1 | 2.11 µM (inactive) | – | 14.7 µM (inactive) | 2.34 µM (inactive) | – | 19 µM (inactive) | 18.5 µM (inactive) | 1.87 µM (inactive) | 15.3 µM (inactive) | 18.9 µM (inactive) | – | – | 15.7 µM (inactive) | 1.63 µM (inactive) | 19.6 µM (inactive) | – | 19.9 µM (inactive) | 1.46 µM (inactive) | 2.01 µM (inactive) | 13.1 µM (inactive)
16 | COC(=O)C(=O)Cc1nc2ccccc2o1 | – | – | > 100 µM (inactive) | > 100 µM (inactive) | > 100 µM (inactive) | > 100 µM (inactive) | > 100 µM (inactive) | – | > 100 µM (inactive) | > 100 µM (inactive) | > 100 µM (inactive) | > 100 µM (inactive) | – | > 100 µM (inactive) | > 100 µM (inactive) | > 100 µM (inactive) | > 100 µM (inactive) | – | – | –
17 | O=C1C[C@H](Sc2ccccc2)C2(OCCO2)[C@@H](Sc2ccccc2)C1 | 0.743 µM (active) | – | 2.7 µM (inactive) | 0.7 µM (active) | – | 11.5 µM (inactive) | 10.2 µM (inactive) | 1.24 µM (inactive) | 11.9 µM (inactive) | 2.58 µM (inactive) | – | – | 1.5 µM (inactive) | 0.272 µM (active) | 5.19 µM (inactive) | – | 15.1 µM (inactive) | 1.64 µM (inactive) | 1.17 µM (inactive) | 1.93 µM (inactive)
18 | CCN(CCCl)c1cc(CN(C)C)cc(NC(=O)c2ccc(C(=O)Nc3cccc(N(CCCl)NN)c3)cc2)c1 | 0.0492 µM (active) | – | 0.0332 µM (active) | < 0.01 µM (active) | – | 0.116 µM (active) | 0.0521 µM (active) | < 0.01 µM (active) | 0.0336 µM (active) | 0.0546 µM (active) | – | – | 0.0225 µM (active) | < 0.01 µM (active) | < 0.01 µM (active) | – | 0.197 µM (active) | 0.185 µM (active) | < 0.01 µM (active) | 0.0142 µM (active)
